{
  "source": "patent US20130123357A1",
  "about": "“Methods for Providing Enhanced Resveratrol Activity Using 4-Acetoxy-Resveratrol” (BRIGHAM YOUNG UNIVERSITY, priority 2010, published 2013)",
  "key": {"[1]": {"tested_on": "IGF1 (Insulin-like growth factor 1)", "test": "Gene array qPCR, human dermal equivalent: IGF1", "assay_type": "cell-based", "details": "1.0% 4AR in DMSO, human skin equivalent, 24 hours, mRNA by qPCR", "source_text": "(§1) In this gene array experiment, we examined the ability of 4AR at a one percent concentration in DMSO (where 100% DMSO served as the vehicle) to either stimulate or inhibit several important genes and quantify directly the transcribed messenger RNA (mRNA) levels by Taqman real time PCR. The test material was placed onto a biological barrier (human dermal equivalent) using a MatTek “ready-to-use” in vitro organotypic tissue equivalent, based on well-documented and validated protocols, using the EpiDerm™ Model EPI-200 Kit. The MatTek kits uses normal (non-transformed) donated human cells as the basis for all of its tissue equivalents. These cells are grown (cultured) in standard Millipore Millicell™ Single Well Tissue Culture Plate Inserts at the air liquid interface or ALI. Apical (top) surface of tissue is exposed to air allowing for direct application of test articles. […] Once the 4 AR test material penetrated the human skin barrier equivalent the gene chip was activated and subsequently mRNA levels were quantified and the results represent stimulation or inhibition of a specific gene.\n(§2) To investigate the effects of 4AR on the expression of genes associated with the extracellular matrix (ECM) of the skin, qPCR experiments were conducted using the tissue cultures (model system described above) with subsequent quantification of mRNA levels from […] tissue/cells. […]"}, "Metallothionein 1": {"tested_on": "Metallothionein 1", "test": "Gene array qPCR, human dermal equivalent: Metallothionein 1", "assay_type": "cell-based", "details": "1.0% 4AR in DMSO, human skin equivalent, 24 hours, mRNA by qPCR", "source_text": "as §1, §2"}, "[2]": {"test": "Body weight gain and food/water intake in rats, 21 days", "assay_type": "in vivo, adult male Long-Evans rats", "protocol": "Adult male Long-Evans rats were administered 4AR for 21 days. DMSO served as the control and 4AR was dissolved into DMSO at the following concentrations: 5.0 mg/kg body weight, 20.0 mg/kg body weight and 90.0 mg/kg body weight (n=12 per group).\nAfter 10 days of receiving the treatments there was a significant decrease in body weight gain, by an average of approximately 17 grams, in the 90.0 mg/kg vs. the control values (525.0+5.1 vs. 542.1+6.2 grams, respectively. After 20 days on the treatments there was a significant decrease in body weight gain, by approximately 14 grams, in the 20.0 mg/kg vs. control values (566.0+4.7 vs. 551.8+3.7 grams). Finally, there was an even greater significant decrease in body weight gain between the 90.0 mg/kg vs. control values after 20 days on the treatments representing a 54.2 grams decrease (or 566.0+4.7 vs. 511.8+4.1 grams)."}, "Type IV collagen alpha 1": {"tested_on": "Type IV collagen alpha 1", "test": "Gene array qPCR, human dermal equivalent: Type IV collagen alpha 1", "assay_type": "cell-based", "details": "1.0% 4AR in DMSO, human skin equivalent, 24 hours, mRNA by qPCR", "source_text": "as §1, §2"}, "[3]": {"tested_on": "HBEGF (Heparin-binding EGF-like growth factor)", "test": "Gene array qPCR, human dermal equivalent: HBEGF", "assay_type": "cell-based", "details": "1.0% 4AR in DMSO, human skin equivalent, 24 hours, mRNA by qPCR", "source_text": "as §1, §2"}, "[4]": {"tested_on": "Procollagen III (alpha 1)", "test": "Gene array qPCR, human dermal equivalent: Procollagen III", "assay_type": "cell-based", "details": "1.0% 4AR in DMSO, human skin equivalent, 24 hours, mRNA by qPCR", "source_text": "as §1, §2"}, "Elastin": {"tested_on": "Elastin", "test": "Gene array qPCR, human dermal equivalent: Elastin", "assay_type": "cell-based", "details": "1.0% 4AR in DMSO, human skin equivalent, 24 hours, mRNA by qPCR", "source_text": "as §1, §2"}, "[5]": {"tested_on": "FosB (FBJ murine osteosarcoma viral oncogene homolog B)", "test": "Gene array qPCR, human dermal equivalent: FosB", "assay_type": "cell-based", "details": "1.0% 4AR in DMSO, human skin equivalent, 24 hours, mRNA by qPCR", "source_text": "as §1, §2"}, "[6]": {"tested_on": "TNFRSF1A (Tumor necrosis factor receptor superfamily, member 1A)", "test": "Gene array qPCR, human dermal equivalent: TNFRSF1A", "assay_type": "cell-based", "details": "1.0% 4AR in DMSO, human skin equivalent, 24 hours, mRNA by qPCR", "source_text": "as §1, §2"}, "[7]": {"tested_on": "Fos (FBJ murine osteosarcoma viral oncogene)", "test": "Gene array qPCR, human dermal equivalent: Fos", "assay_type": "cell-based", "details": "1.0% 4AR in DMSO, human skin equivalent, 24 hours, mRNA by qPCR", "source_text": "as §1, §2"}, "Desmocollin 1": {"tested_on": "Desmocollin 1", "test": "Gene array qPCR, human dermal equivalent: Desmocollin 1", "assay_type": "cell-based", "details": "1.0% 4AR in DMSO, human skin equivalent, 24 hours, mRNA by qPCR", "source_text": "as §1, §2"}, "Catalase": {"tested_on": "Catalase", "test": "Gene array qPCR, human dermal equivalent: Catalase", "assay_type": "cell-based", "details": "1.0% 4AR in DMSO, human skin equivalent, 24 hours, mRNA by qPCR", "source_text": "as §1, §2"}, "[8]": {"tested_on": "S100 Calcium binding protein A9", "test": "Gene array qPCR, human dermal equivalent: S100 A9", "assay_type": "cell-based", "details": "1.0% 4AR in DMSO, human skin equivalent, 24 hours, mRNA by qPCR", "source_text": "as §1, §2"}, "Nerve growth factor": {"tested_on": "Nerve growth factor", "test": "Gene array qPCR, human dermal equivalent: Nerve growth factor", "assay_type": "cell-based", "details": "1.0% 4AR in DMSO, human skin equivalent, 24 hours, mRNA by qPCR", "source_text": "as §1, §2"}, "[9]": {"tested_on": "PCNA (Proliferating Cell Nuclear Antigen)", "test": "Gene array qPCR, human dermal equivalent: PCNA", "assay_type": "cell-based", "details": "1.0% 4AR in DMSO, human skin equivalent, 24 hours, mRNA by qPCR", "source_text": "as §1, §2"}, "[10]": {"tested_on": "TGF (transforming growth factor) beta type II receptor", "test": "Gene array qPCR, human dermal equivalent: TGF beta type II receptor", "assay_type": "cell-based", "details": "1.0% 4AR in DMSO, human skin equivalent, 24 hours, mRNA by qPCR", "source_text": "as §1, §2"}, "JunD": {"tested_on": "JunD", "test": "Gene array qPCR, human dermal equivalent: JunD", "assay_type": "cell-based", "details": "1.0% 4AR in DMSO, human skin equivalent, 24 hours, mRNA by qPCR", "source_text": "as §1, §2"}, "[11]": {"tested_on": "Tissue inhibitor of metalloproteinases 1", "test": "Gene array qPCR, human dermal equivalent: TIMP1", "assay_type": "cell-based", "details": "1.0% 4AR in DMSO, human skin equivalent, 24 hours, mRNA by qPCR", "source_text": "as §1, §2"}},
  "data": [
    {"smiles": "CC(=O)Oc1ccc(C=Cc2cc(O)cc(O)c2)cc1", "note": "[4AR, 3,5-dihydroxy-4′-acetoxy stilbene]", "values": [
      {"measurement": "IGF1 increased by", "setting": "[1]", "value": "2.6-fold"},
      {"measurement": "Metallothionein 1 increased by", "setting": "Metallothionein 1", "value": "64.0-fold"},
      {"measurement": "decrease in body weight gain vs. control", "setting": "[2]; 20.0 mg/kg, after 20 days", "value": "approximately 14 grams"},
      {"measurement": "body weight", "setting": "[2]; 20.0 mg/kg, after 20 days, control 566.0+4.7", "value": "551.8+3.7 grams"},
      {"measurement": "decrease in body weight gain vs. control", "setting": "[2]; 90.0 mg/kg, after 10 days", "value": "approximately 17 grams"},
      {"measurement": "body weight", "setting": "[2]; 90.0 mg/kg, after 10 days, control 542.1+6.2", "value": "525.0+5.1 grams"},
      {"measurement": "decrease in body weight gain vs. control", "setting": "[2]; 90.0 mg/kg, after 20 days", "value": 54.2, "unit": "grams"},
      {"measurement": "body weight", "setting": "[2]; 90.0 mg/kg, after 20 days, control 566.0+4.7", "value": "511.8+4.1 grams"},
      {"measurement": "food/water intake among the treatment groups", "setting": "[2]; 5.0, 20.0 and 90.0 mg/kg body weight, 21 days, vs DMSO control", "value": "no significant differences"},
      {"measurement": "Type IV collagen alpha 1 increased by", "setting": "Type IV collagen alpha 1", "value": "1.7-fold"},
      {"measurement": "HBEGF increased by", "setting": "[3]", "value": "1.9-fold"},
      {"measurement": "Procollagen III increased by", "setting": "[4]", "value": "by 2.2-fold"},
      {"measurement": "Elastin increased by", "setting": "Elastin", "value": "2.8-fold"},
      {"measurement": "FosB increased by", "setting": "[5]", "value": "8.2-fold"},
      {"measurement": "TNFRSF1A decreased by", "setting": "[6]", "value": "1.4-fold"},
      {"measurement": "Fos increased by", "setting": "[7]", "value": "3.4-fold"},
      {"measurement": "Desmocollin 1 decreased by", "setting": "Desmocollin 1", "value": "by 2.4-fold"},
      {"measurement": "Catalase increased by", "setting": "Catalase", "value": "1.6-fold"},
      {"measurement": "S100 Calcium binding protein A9 decreased by", "setting": "[8]", "value": "1.6-fold"},
      {"measurement": "Nerve growth factor increased by", "setting": "Nerve growth factor", "value": "6.7-fold"},
      {"measurement": "PCNA increased by", "setting": "[9]", "value": "5.4-fold with"},
      {"measurement": "TGF beta type II receptor increased by", "setting": "[10]", "value": "1.7-fold"},
      {"measurement": "JunD increased by", "setting": "JunD", "value": "2.1-fold"},
      {"measurement": "Tissue inhibitor of metalloproteinases 1 increased by", "setting": "[11]", "value": "2.5-fold"}
    ]}
  ]
}
